Experimental data as given in patent US20230116703A1, “NOVEL ERGOLINES AND METHODS OF TREATING MOOD DISORDERS” (priority 2021, published 2023).
Read-outs that look alike come from different tables or passages of the source.

How the values were obtained:
5-HT2B receptor = biological target: T1, 5-HT2B receptor (Homo sapiens, UniProt P41595); assay: cell-based
T1 construct: host or cells: HEK293
Experimental: (§1) Functional Assays at 5-HT2A, 5-HT2B, and 5-HT1A. Agonist activity at 5-HT2A, 5-HT2B, and 5-HT1A receptors was determined using a FLIPR Ca^2+ flux assay at WuXi AppTec (Hong Kong) Limited according to their standard protocols. Briefly, stably transfected cells expressing the receptor of interest (HEK293 for 5-HT2A and 5-HT2B; CHO cells for 5-HT1A) were grown and plated in a 384 well plate and incubated at 37° C. and 5% CO2 overnight. A solution of 250 mM probenecid in 1 mL FLIPR assay buffer was prepared fresh. This was combined with a fluorescent dye (Fluo-4 Direct™) to make a final assay concentration of 2.5 mM. […] The fluorescent dye was then added to the assay plate along with assay buffer to a final volume of 40 μL. The cell plate was incubated for 50 min at 37° C. and 5% CO2 and placed into the FLIPR Tetra along with the compound plate. 10 μL of references and compounds were then transferred from the compound plate into the cell plate and the fluorescent signal was read.

5-HT1A receptor = biological target: T2, 5-HT1A receptor (Homo sapiens, UniProt P08908); assay: cell-based
T2 construct: host or cells: CHO cells
T2 sequence (P08908 1-422): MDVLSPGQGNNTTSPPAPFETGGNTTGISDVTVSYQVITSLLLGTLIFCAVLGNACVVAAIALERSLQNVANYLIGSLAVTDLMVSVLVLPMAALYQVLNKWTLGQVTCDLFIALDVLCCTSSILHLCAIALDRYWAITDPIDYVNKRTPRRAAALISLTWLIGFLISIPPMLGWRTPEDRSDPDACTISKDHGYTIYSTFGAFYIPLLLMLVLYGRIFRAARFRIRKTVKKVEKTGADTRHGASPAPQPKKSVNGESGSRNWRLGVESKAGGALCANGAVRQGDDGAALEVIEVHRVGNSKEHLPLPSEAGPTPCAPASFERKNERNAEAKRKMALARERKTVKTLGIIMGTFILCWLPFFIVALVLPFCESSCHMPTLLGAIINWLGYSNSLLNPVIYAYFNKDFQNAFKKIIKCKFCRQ
Experimental: as §1

5-HT2A receptor [1] = biological target: T3, 5-HT2A receptor (Homo sapiens, UniProt P28223); assay: biochemical; assay type: binding
T3 construct: host or cells: HEK293
Experimental: Affinity of the test compounds for the 5-HT2A receptor was determined in radioligand binding experiments with [^3H]ketanserin by WuXi AppTec (Hong Kong) Limited, using methods adapted from the literature and under conditions described in Table 1.

5-HT1B receptor = 5-HT1B receptor (Homo sapiens, UniProt P28222); assay: cAMP accumulation agonist assay at 5-HT1B; assay type: cell-based
Experimental: Disclosed compounds were tested for agonist activity at several serotonin receptor subtypes (5-HT2A, […], 5-HT2C, and 5-HT1A) using Ca^2+ flux functional assays and the 5-HT1B receptor using a cAMP accumulation assay, with the results summarized in Table 4. […] Potent agonist activity was also observed at the other serotonin receptors tested, although the selectivity profile among the receptors varied across compounds. […]. However, at the same time, the N-propyl compounds were more efficacious agonists at 5-HT2B than the corresponding N-methyl compounds. The selectivity of disclosed compounds for 5-HT2A over 5-HT2C and 5-HT1A was less predictable and varied widely across compounds, ranging from ˜1:6 to ˜20:1 (2C/2A) in the case of 5-HT2C and from ˜1:4 to >100:1 (1A/2A) in the case of 5-HT1A. […] An azetidinyl amide substituent tended to increase potency at 5-HT1A relative to 5-HT2A.
Functional Assay at 5-HT1B. Agonist activity at 5-HT1B was determined using a cAMP accumulation protocol at WuXi AppTec (Hong Kong) Limited according to their standard protocols. Briefly, stably transfected cells were plated in an OptiPlate-384 well plate, incubated at RT for 60 mins, and cAMP standard solution (800 nM, 10 μL) was added to the blank well. Then, 10 μL detection reagent was added to each well, the plate incubated for 60 mins at RT, and the plate read using EnVision.

[2] = Metabolic stability in human liver microsomes (HLM); assay type: in vitro ADME; conditions: both sexes, human, pH 7.4, 0.50 mg protein per mL
Source text: HLM Stability. Pooled HLM from adult male and female donors (Corning 452117) were used.

5-HT2A receptor [3] = biological target: T3, 5-HT2A receptor; assay: cell-based; assay type: cell-based
Experimental: as §1

[4] = Ca^2+ flux, agonist, read-out: 5-HT2B EC50
[5] = Ca^2+ flux, agonist, read-out: 5-HT1A EC50
[6] = 1 nM [^3H]ketanserin, HEK293 stable cell line, read-out: 5-HT2A Receptor Ki (nM) ([^3H]ketanserin)
[7] = cAMP, agonist, read-out: 5-HT1B EC50
[8] = Ca^2+ flux, agonist, read-out: 5-HT2A EC50

T1 sequence (P41595 whole entry): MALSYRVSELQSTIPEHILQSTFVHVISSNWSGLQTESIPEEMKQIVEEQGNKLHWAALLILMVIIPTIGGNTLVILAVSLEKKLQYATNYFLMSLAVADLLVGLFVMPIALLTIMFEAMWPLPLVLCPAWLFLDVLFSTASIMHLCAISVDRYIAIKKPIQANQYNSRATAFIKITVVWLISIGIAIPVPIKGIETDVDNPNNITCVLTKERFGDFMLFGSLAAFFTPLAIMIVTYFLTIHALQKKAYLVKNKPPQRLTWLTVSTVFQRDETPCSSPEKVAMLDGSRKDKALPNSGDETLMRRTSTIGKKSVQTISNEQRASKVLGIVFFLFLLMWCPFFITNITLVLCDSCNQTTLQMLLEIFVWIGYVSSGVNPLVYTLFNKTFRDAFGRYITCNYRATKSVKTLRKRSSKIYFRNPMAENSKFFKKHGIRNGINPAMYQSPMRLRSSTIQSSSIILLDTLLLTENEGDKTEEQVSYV
T3 sequence (P28223 whole entry): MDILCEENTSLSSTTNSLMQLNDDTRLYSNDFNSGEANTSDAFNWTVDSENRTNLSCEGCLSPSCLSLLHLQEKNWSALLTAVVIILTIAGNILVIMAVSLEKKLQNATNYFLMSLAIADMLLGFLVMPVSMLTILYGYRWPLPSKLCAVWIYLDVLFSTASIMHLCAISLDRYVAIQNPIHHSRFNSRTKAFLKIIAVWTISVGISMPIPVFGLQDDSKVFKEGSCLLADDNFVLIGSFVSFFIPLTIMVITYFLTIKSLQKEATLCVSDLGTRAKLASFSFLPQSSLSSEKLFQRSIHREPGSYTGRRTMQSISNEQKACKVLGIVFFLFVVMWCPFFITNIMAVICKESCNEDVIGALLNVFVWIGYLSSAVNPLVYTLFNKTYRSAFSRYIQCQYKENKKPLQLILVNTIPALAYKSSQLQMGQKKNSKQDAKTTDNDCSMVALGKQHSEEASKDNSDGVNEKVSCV
5-HT1B receptor, sequence (P28222 whole entry): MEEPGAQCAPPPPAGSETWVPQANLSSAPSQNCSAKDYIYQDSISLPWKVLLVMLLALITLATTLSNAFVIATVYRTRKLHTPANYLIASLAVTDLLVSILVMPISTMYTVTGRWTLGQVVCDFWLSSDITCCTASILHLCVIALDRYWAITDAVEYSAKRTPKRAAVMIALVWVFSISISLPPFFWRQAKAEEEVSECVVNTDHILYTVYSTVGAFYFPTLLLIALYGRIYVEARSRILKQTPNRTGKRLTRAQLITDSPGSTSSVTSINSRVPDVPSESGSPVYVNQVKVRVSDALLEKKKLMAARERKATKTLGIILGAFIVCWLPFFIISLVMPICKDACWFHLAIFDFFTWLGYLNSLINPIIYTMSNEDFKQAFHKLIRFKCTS

Row | SMILES | EC50 (5-HT2B receptor) | 5-HT2B % Act @ Max Dose (5-HT2B receptor; Ca^2+ flux, agonist) | EC50 (5-HT1A receptor) | 5-HT1A % Act @ Max Dose (5-HT1A receptor; Ca^2+ flux, agonist) | Ki (5-HT2A receptor [1]) | EC50 (5-HT1B receptor) | 5-HT1B % Act @ Max Dose (5-HT1B receptor; cAMP, agonist) | half-life at 1 μM ([2]; microsomes) | microsomal CLint at 1 μM ([2]; microsomes) | EC50 (5-HT2A receptor [3]) | 5-HT2A % Act @ Max Dose (5-HT2A receptor [3]; Ca^2+ flux, agonist) | EC50 (5-HT2B receptor; [4]) | EC50 (5-HT1A receptor; [5]) | Ki (5-HT2A receptor [1]; [6]) | EC50 (5-HT1B receptor; [7]) | half-life at 1 μM ([2]; pooled human liver microsomes) | microsomal CLint at 1 μM ([2]; pooled human liver microsomes) | EC50 (5-HT2A receptor [3]; [8]) | selectivity for 5-HT2A compared to the other serotonin receptors tested (in words) (5-HT2A receptor [3]; functional agonist assays)
1 | CCN(CC)C(=O)[C@@H]1C=C2c3cccc4[nH]c(Br)c(c34)C[C@H]2N(C)C1 [Compound 35, (6aR,9R)-5-bromo-N,N-diethyl-7-methyl-4,6,6a,7,8,9-hexahydroindolo[4,3-fg]quinoline-9-carboxamide] | > 10000 nM | −0.13% | > 3160 nM | −1.58% | 0.73 nM | 214 nM | 76.8% | 24.2 min | 57.4 µL/min/mg | 66.4 nM | 67.74% |  |  |  |  |  |  |  | 
2 | CN1C[C@H](C(=O)N(CCF)CCF)C=C2c3cccc4[nH]cc(c34)C[C@H]21 [Compound 38, (6aR,9R)—N,N-bis(2-fluoroethyl)-7-methyl-4,6,6a,7,8,9-hexahydroindolo[4,3-fg]quinoline-9-carboxamide] |  | 28.13% |  | 90.5% |  |  | 94.72% |  |  |  | 93.39% | 22.1 nM | 3.45 nM | 0.84 nM | 4.65 nM | 64 min | 21.6 µL/min/mg | 11.8 nM | 
3 | CCN(CC)C(=O)[C@@H]1C=C2c3cccc4[nH]cc(c34)C[C@H]2N(CCF)C1 [Compound 39, (6aR,9R)—N,N-diethyl-7-(2-fluoroethyl)-4,6,6a,7,8,9-hexahydroindolo[4,3-fg]quinoline-9-carboxamide] |  | 85.46% |  | 91.21% |  |  | 99.00% |  |  |  | 95.52% | 137 nM | 239 nM | 4.54 nM | 1100 nM | 31.7 min | 43.8 µL/min/mg | 16.2 nM | 
4 | CC[C@@H](C)NC(=O)[C@@H]1C=C2c3cccc4[nH]cc(c34)C[C@H]2N(CCC(F)(F)F)C1 [Compound 40, (6aR,9R)—N—((R)-sec-butyl)-7-(3,3,3-trifluoropropyl)-4,6,6a,7,8,9-hexahydroindolo[4,3-fg]quinoline-9-carboxamide] |  | 8.46% |  | 22.27% |  |  | 62.14% |  |  |  | 45.12% | > 10000 nM | > 10000 nM | 37.7 nM | 8310 nM | 3.2 min | 435 µL/min/mg | 169 nM | highly selective
5 | CCN(CC)C(=O)[C@@H]1C=C2c3cccc4[nH]c(Br)c(c34)C[C@H]2N(CCCF)C1 [Compound 41, (6aR,9R)-5-bromo-N,N-diethyl-7-(3-fluoropropyl)-4,6,6a,7,8,9-hexahydroindolo[4,3-fg]quinoline-9-carboxamide] |  | 84.51% |  | 39.75% |  |  | 61.49% |  |  |  | 75.44% | 509 nM | > 10000 nM | 0.58 nM | > 10000 nM | 10.7 min | 130 µL/min/mg | 116 nM | 
